Data from PMC6514978, “Synthesis, Antibacterial Activities, Mode of Action and Acute Toxicity Studies of New Oxazolidinone-Fluoroquinolone Hybrids” (Molecules, 2019).
Values after ≈ are worked out from the molar mass of the structure shown.

Experiments:
[1] = Acute oral toxicity, limit test (OECD 425); assay type: in vivo; conditions: female, Kunming, mouse, in vivo, 2000 mg/kg·bw; mice, single oral dose, limit test 2000 mg/kg, 14 d observation
Method: (§1) Female Kunming mice (SPF grade, 18–22 g) were obtained from laboratory animal center of Lanzhou Veterinary Research Institute (Lanzhou, China). Mice were maintained under the standard conditions of 12 h light/dark cycle, room temperate (22 ± 3 °C), 50–60% relative humidity. They were fed normally with an unlimited supply of feed and water for seven days and deprived of food but not water for 4 h prior to the experiment. The toxicity test was supported by the Animal Ethics Committee of Lanzhou Institute of Husbandry and Pharmaceutical Sciences.
(§2) The acute toxicity of hybrids OBP-4 and OBP-5 was conducted by the limit test described in the OECD guideline 425 [39]. The mice were divided randomly into two groups, five animals in each group. One group of mice received a single oral dose of hybrids OBP-4 or OBP-5 at 2000 mg/kg·bw, and the other group of mice was given the equal volume of 0.5% CMC-Na solution (0.1 mL/10 g of body weight). Food was restored until 4 h after administration. The observation of each animal occurred according to the OECD guideline 425 [27], meaning continuously during the first 30 min, periodically during the next 24 h, and then daily thereafter until 14 d after dosing. The weight changes and mortality were calculated and recorded. The mice that survived were humanely killed at the end of the experiment.

[2] = test system: Female Kunming mice; experiment: Acute oral toxicity, limit test (OECD 425); assay type: in vivo; conditions: single oral dose 2000 mg/kg, 14 d observation
Method: as §1, §2

[3] = test system: Gram-positive bacteria; experiment: MIC summary, Gram-positive bacteria of the preliminary panel; assay type: cell-based
Text: (§3) 6 standard strains and 3 clinical isolates were used to the preliminary evaluation of in vitro antibacterial activities of oxazolidinone-fluoroquinolone hybrids. For the further evaluation of hybrids OBP-4 and OBP-5, 263 clinical isolates including S. aureus (46), S. haemolyticus(32), S. epidermidis (10), E. faecalis (72), E. faecium (47), S. pneumoniae (13), H. parasuis (34), S. suis (9), and 8 resistant strains including MRSA, MRSE, CIP-resistant S. aureus and S. haemolyticus, VAN and quinolone-resistant S. pneumoniae, LZD-resistant E. faecalis, LZD/VAN and quinolone-resistant E. faecium were collected and tested.
(§4) Susceptibility testing of oxazolidinone-fluoroquinolone hybrids against various bacteria was performed by the broth microdilution method as outlined by the Clinical and Laboratory Standards Institute (CLSI). Three types of media, including cation-adjusted Mueller Hinton broth, Haemophilus Test Medium and cation-adjusted Mueller Hinton broth that contained 3%–5% lysed horse blood, were used to culture the corresponding bacteria. All compounds including comparator drugs were dissolved in an appropriate solvent at a concentration of 2.048 mg/mL and then serially diluted two-fold to provide the required concentrations. A final inoculum of 5 × 10^5 CFU/mL was used and plates were read after incubation for 16–24 h at 35 °C. […]

[4] = test system: other resistant organisms in the test; experiment: MIC summary, resistant organisms other than MRSA and MRSE; assay type: cell-based; conditions: resistant strains other than MRSA and MRSE; read-out: MICs values against other resistant organisms
Text: as §3, §4

[5] = biological target: T1, E. coli Topo IV (Escherichia coli, UniProt P0AFI2+P20083); experiment: Topo IV relaxation assay; assay type: biochemical; conditions: relaxation of supercoiled pBR322, 37 °C, 30 min
T1 construct: purchased Inspiralis Co., Ltd; host or cells: overexpressing E. coli
Method: The E. coli Topo IV Relaxation Assay Kit (Inspiralis Co., Ltd.) was used to evaluate the effects of hybrids OBP-4 and OBP-5 against topo IV. Topo IV was prepared by the overexpressing E. coli. One unit of topo IV will relax 0.4 μg of supercoiled pBR322. In the assay, the final reaction mixtures (30 μL) consisted of 0.4 μg supercoiled pBR322 and one unit DNA Topo IV with or without compounds in assay buffer with 40 mM Hepes-KOH (pH 7.6), 100 mM potassium glutamate, 10 mM magnesium acetate, 10 mM DTT, 1 mM ATP and 50 μg/mL albumin, and then was incubated at 37 °C for 30 min. The reaction was terminated by adding 30 μL of STEB and 30 μL of chloroform/isoamyl alcohol (v:v, 24:1) after incubation for 30 min. Then, the reaction products were processed as described in a DNA gyrase supercoiling assay.

T1 sequence (P20083 whole entry): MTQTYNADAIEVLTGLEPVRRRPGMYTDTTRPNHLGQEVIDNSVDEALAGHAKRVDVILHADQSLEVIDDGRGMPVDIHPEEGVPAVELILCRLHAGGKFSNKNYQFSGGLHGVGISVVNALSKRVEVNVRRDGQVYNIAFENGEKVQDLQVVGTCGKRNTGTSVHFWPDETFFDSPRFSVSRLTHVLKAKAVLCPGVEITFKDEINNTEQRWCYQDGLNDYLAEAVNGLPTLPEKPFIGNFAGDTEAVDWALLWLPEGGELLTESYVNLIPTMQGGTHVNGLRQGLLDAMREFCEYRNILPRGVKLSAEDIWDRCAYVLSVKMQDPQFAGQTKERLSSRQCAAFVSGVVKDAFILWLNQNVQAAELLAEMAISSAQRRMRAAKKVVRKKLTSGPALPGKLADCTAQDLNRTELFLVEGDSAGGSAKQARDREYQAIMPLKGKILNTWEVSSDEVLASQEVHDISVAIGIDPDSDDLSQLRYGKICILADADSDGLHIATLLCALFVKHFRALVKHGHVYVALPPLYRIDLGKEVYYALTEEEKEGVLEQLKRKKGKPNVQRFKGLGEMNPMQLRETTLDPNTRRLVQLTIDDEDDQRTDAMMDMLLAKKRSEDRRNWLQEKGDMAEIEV
T1 sequence (P0AFI2 whole entry): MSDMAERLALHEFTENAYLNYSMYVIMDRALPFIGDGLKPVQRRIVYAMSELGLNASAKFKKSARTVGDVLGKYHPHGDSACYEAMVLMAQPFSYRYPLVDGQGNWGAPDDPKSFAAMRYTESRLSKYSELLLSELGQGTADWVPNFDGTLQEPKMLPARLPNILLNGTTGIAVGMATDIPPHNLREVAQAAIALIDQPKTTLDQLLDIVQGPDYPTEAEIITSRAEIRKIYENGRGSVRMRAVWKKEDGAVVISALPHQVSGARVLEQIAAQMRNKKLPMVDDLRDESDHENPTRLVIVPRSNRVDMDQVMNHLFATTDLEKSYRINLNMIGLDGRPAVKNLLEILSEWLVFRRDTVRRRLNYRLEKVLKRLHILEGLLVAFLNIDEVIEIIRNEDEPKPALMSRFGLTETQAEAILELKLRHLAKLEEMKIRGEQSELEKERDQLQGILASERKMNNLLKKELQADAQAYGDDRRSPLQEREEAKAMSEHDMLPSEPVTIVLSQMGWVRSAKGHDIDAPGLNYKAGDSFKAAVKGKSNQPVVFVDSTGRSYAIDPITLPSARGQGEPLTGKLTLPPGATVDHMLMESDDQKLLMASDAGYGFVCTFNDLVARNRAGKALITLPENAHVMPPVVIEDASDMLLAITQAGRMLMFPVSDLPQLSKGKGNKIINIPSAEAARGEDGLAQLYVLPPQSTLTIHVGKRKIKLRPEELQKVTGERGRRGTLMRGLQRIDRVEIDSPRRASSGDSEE

SMILES	LD50 at 14 d [1] [mg/kg]	death and toxicity signs [2]	MIC ([3]; read-out: MICs against Gram-positive bacteria) [µg/mL]	MIC [4] [µg/mL]	IC50 [5] [µM]	antibacterial efficacy against Gram-positive bacteria, times stronger than LZD ([3]; relative to LZD)
C[C@H]1CCc2c(N3CCC(O)(COc4ccc(N5C[C@H](CO)OC5=O)cc4F)CC3)c(F)cc3c(=O)c(C(=O)O)cn1c23 [OBP-4]	> 2000	No death and any toxicity signs were observed	≤ 0.5	0.0625 to 1 (≈ 0.104 to 1.67 µM)	10 to 15	–
CC1Sc2c(C(=O)O)c(=O)c3cc(F)c(N4CCC(O)(COc5ccc(N6C[C@H](CO)OC6=O)cc5F)CC4)cc3n21 (stereo partly shown) [OBP-5]	> 2000	No death and any toxicity signs were observed	–	0.0625 to 1 (≈ 0.104 to 1.66 µM)	> 40	4–16 times
